Results published in publication PMC8175350, “Drug repurposing screens identify chemical entities for the development of COVID-19 interventions” (Nature Communications, 2021).
Where “and” joins values, the source holds several entries; their conditions need not be identical. Equal values may be shown once. Read-outs that look alike come from different tables or passages of the source.

Experiments:
[1] = Uninfected HeLa-ACE2 24 h live/dead cytotoxicity counter screen; type: cell-based, human; conditions: human, uninfected HeLa-ACE2 cells, detail block; read-out: HeLa-ACE2 uninfected cytotoxicity CC50 GeoMean
HeLa-ACE2 cells [2] = experiment: as above; type: cell-based, human; conditions: HeLa-ACE2; concentration log[M] -8.59517; replicates
SARS-CoV-2 [3] = experiment: microbe, parasite or virus in culture; type: cell-based
Calu-3 cells [4] = system: Calu-3 cells
in vitro [5] = conditions: human, Calu-3 uninfected cytotoxicity CC50 GeoMean
in vitro [6] = conditions: human
SARS-CoV-2 [7] = experiment: microbe, parasite or virus in culture; type: cell-based; conditions: for %infected: Calu-3, replicates n=1, n=2
SARS-CoV-2 [8] = experiment: Hamster lung histopathology/infiltrate quantification (H&E, ImageJ); type: in vivo, Golden Syrian hamster; conditions: 500 mg/kg
From the text: ImageJ (V1.53) software is used to quantify H&E-stained slide images (at ×20 magnification). Images are first converted to 8-Bit (Image > Type > 8-Bit), their threshold is adjusted (Image > Adjust > Threshold), a threshold value between 70–80% is chosen to ensure only dark stained nuclei are detected. Following thresholding the image is converted to a mask (Process > Binary > Convert to Mask) and analyzed (Analyze > Analyze Particles) with default settings, adding display results and show outline and the output was exported into GraphPad Prism (V9.0.0) where the nonparametric, two-sided Mann–Whitney statistical test was used to calculate significance.

HeLa-ACE2 cells [9] = experiment: cells; conditions: Homo sapiens
SARS-CoV-2 [10] = experiment: Hamster lung RNA-Seq analysis; type: in vivo, Golden Syrian hamster; conditions: 500 mg/kg
in vitro [11] = conditions: human; remark: listed apart in the source
[12] = Pharmacokinetic studies in Syrian hamsters, PO; type: in vivo; conditions: male, Syrian, hamster, in vivo
Protocol: Pharmacokinetic studies were conducted at Scripps Research Institute’s Animal Models Core in accordance with IACUC guidelines (IACUC Protocol #09-0004-5). Eight-week-old male Syrian Hamsters (Charles River; three per group) were dosed PO as indicated for each compound and formulation. Plasma concentration of each test article was monitored up to 48 h. Nelfinavir was formulated in 10% DMSO/90% corn oil and MK-4482 was formulated in 10% PEG400/2.5% Cremaphor RH40 for both pharmacokinetic and efficacy studies.

HeLa-ACE2 cells [13] = experiment: cells; type: cell-based, human; conditions: Homo sapiens, HeLa-ACE2; read-out: HeLa-ACE2 TOA cell count EC50 GeoMean
SARS-CoV-2 [14] = experiment: microbe, parasite or virus in culture; type: cell-based; remark: listed apart in the source
SARS-CoV-2 [15] = experiment: Golden Syrian hamster SARS-CoV-2 efficacy model, body weight; type: in vivo; conditions: for group average % of starting weight: day 5 of infection
Calu-3 cells [16] = experiment: cells; conditions: Homo sapiens
SARS-CoV-2 [17] = type: cell-based; conditions: 72 hpi
SARS-CoV-2 [18] = experiment: Hamster lung viral titer by plaque assay, day 5; type: in vivo, Golden Syrian hamster; conditions: for SARS-CoV-2 viral load in lung by plaque quantification, individual animals: values look like log10

Structure (SMILES): CC(C)C(=O)OC[C@H]1O[C@@H](n2ccc(NO)nc2=O)[C@H](O)[C@@H]1O [MK-4482]
- CC50 at 24 h [1]: > 39.8 µM
- cytotox (HeLa-ACE2 cells [2]): -0.706 and -12.7385 and -12.928 and 0.5106 and 4.684 and -11.4286 and -5.289 and -2.8 and 6.41
- Emax (SARS-CoV-2 [3]; Severe acute respiratory syndrome coronavirus 2, HeLa-ACE2, 24 h, curve plateau at infinite concentration, read-out: HeLa-ACE2 CoV-2 Sinf Average): 100%
- EC50 (SARS-CoV-2 [3]; Severe acute respiratory syndrome coronavirus 2, HeLa-ACE2, detail block, read-out: HeLa-ACE2 CoV-2 EC50 GeoMean): > 9.45 µM
- HeLa-ACE2 SI (SARS-CoV-2 [3]; selectivity index, uninfected HeLa-ACE2 CC50 / SARS-CoV-2 EC50): > 4.21
- uninfected Calu-3 CC50 (Calu-3 cells [4]): > 29.85 ×÷ 1 (n=2) μM
- cytotox (Calu-3 cells [4]; human): -7.212
- CC50 at 48 h (in vitro [5]): > 29.9 µM
- CC50 at 72 h (in vitro [6]): > 39.8 µM
- %infected (SARS-CoV-2 [7]; concentration log[M] -5.00096): -32.7882% and -37.4837% and -33.6325% and -41.3774% and -26.9927% and -42.8416%
- %infected (SARS-CoV-2 [7]; concentration log[M] -5.47808): -27.4805% and -3.693% and -9.149% and -11.3438% and 9.653% and -8.935%
- %infected (SARS-CoV-2 [7]; concentration log[M] -6.08014): 23.1125% and 4.59% and 25.286% and 17.3454% and 15.2546% and 10.3832%
- %infected (SARS-CoV-2 [7]; concentration log[M] -6.42922): 17.3493% and 17.6914% and 5.1734% and 5.136% and 26.2062% and 8.78%
- %infected (SARS-CoV-2 [7]; concentration log[M] -6.90623): 7.3785% and 13.9122% and -0.1637% and 2.863% and 27.9695% and 13.9935%
- %infected (SARS-CoV-2 [7]; concentration log[M] -7.50836): -8.777% and 19.9854% and 1.789% and 24.5386% and 23.5481% and -28.3332%
- %infected (SARS-CoV-2 [7]; concentration log[M] -7.85886): 17.2433% and 32.9409% and -21.7492% and 16.4627% and 42.3108% and 21.6153%
- %infected (SARS-CoV-2 [7]; concentration log[M] -8.33602): 11.8145% and 8.098% and -0.8953% and 19.1715% and 30.2349% and 22.7038%
- Emax (SARS-CoV-2 [7]; Severe acute respiratory syndrome coronavirus 2, Calu-3, 48 h, curve plateau at infinite concentration, read-out: Calu-3 CoV-2 Sinf Average): 100%
- EC50 (SARS-CoV-2 [7]; Severe acute respiratory syndrome coronavirus 2, Calu-3, detail block, read-out: Calu-3 CoV-2 EC50 GeoMean): > 9.98 µM
- histological examination of lungs (SARS-CoV-2 [8]): protected
- abundance of cellularity and infiltrates in the lungs (ImageJ) (SARS-CoV-2 [8]; MK-4482-treated, Hamster 1-4, individual images): 2983 and 5397 and 4186 and 5390 and 1931 and 4673 and 3775 and 5624 and 2350 and 4146 and 3662 and 5094 and 4440 and 4933 and 3481 and 5058 and 2520 and 4471 and 3837 and 4151 and 2838 and 4738 and 3878 and 3011 and 2773
- Emax (HeLa-ACE2 cells [9]; HeLa-ACE2, 24 h, read-out: HeLa-ACE2 cell count Sinf Average): 100%
- EC50 (HeLa-ACE2 cells [9]; HeLa-ACE2, read-out: HeLa-ACE2 cell count EC50 GeoMean, detail block): > 9.59 µM
- genes significantly down regulated vs infected vehicle-treated controls (DESeq2) (SARS-CoV-2 [10]): 66 genes
- unsupervised hierarchical clustering of lung RNA-Seq samples (SARS-CoV-2 [10]): clustered together with uninfected samples
- CC50 at 72 h (in vitro [11]): > 39.8 µM
- Cl [12]: 401.00 mL/min/kg
- EC50 (HeLa-ACE2 cells [13]): > 9.59 µM
- TOA (SARS-CoV-2 [14]; HeLa-ACE2, log[M] -7.8551): 2.9089 and 4.102 and 5.064
- EC50 (SARS-CoV-2 [14]; Severe acute respiratory syndrome coronavirus 2, HeLa-ACE2, detail block, read-out: HeLa-ACE2 TOA CoV-2 EC50 GeoMean): > 9.59 µM
- TOA:HeLa-ACE2 EC50 Ratio (SARS-CoV-2 [14]; TOA EC50 / HeLa-ACE2 SARS-CoV-2 EC50): 1.014
- group average % of starting weight (SARS-CoV-2 [15]; 50 mg/kg PO BID): 90%
- Percent weight from day 0, individual animals (SARS-CoV-2 [15]; 50 mg/kg, Day 1): 100.619% and 100% and 99.9008% and 97.2408% and 100.231%
- Percent weight from day 0, individual animals (SARS-CoV-2 [15]; 50 mg/kg, Day 2): 97.6006% and 97.2498% and 96.3294% and 93.8963% and 97.0023%
- Percent weight from day 0, individual animals (SARS-CoV-2 [15]; 50 mg/kg, Day 3): 96.13% and 95.8747% and 93.0556% and 92.5585% and 94.3121%
- Percent weight from day 0, individual animals (SARS-CoV-2 [15]; 50 mg/kg, Day 4): 94.4272% and 93.9649% and 89.1865% and 91.7224% and 90.8532%
- Percent weight from day 0, individual animals (SARS-CoV-2 [15]; 50 mg/kg, Day 5): 93.4985% and 90.2215% and 86.4087% and 91.3043% and 88.9316%
- group average % of starting weight (SARS-CoV-2 [15]; 150 mg/kg PO BID): 89%
- Percent weight from day 0, individual animals (SARS-CoV-2 [15]; 150 mg/kg, Day 1): 99.3145% and 100.794% and 101.014% and 100.59% and 100.598%
- Percent weight from day 0, individual animals (SARS-CoV-2 [15]; 150 mg/kg, Day 2): 97.0009% and 97.9349% and 97.6599% and 97.2199% and 98.281%
- Percent weight from day 0, individual animals (SARS-CoV-2 [15]; 150 mg/kg, Day 3): 94.7729% and 96.1875% and 94.7738% and 95.7035% and 94.843%
- Percent weight from day 0, individual animals (SARS-CoV-2 [15]; 150 mg/kg, Day 4): 92.1165% and 92.5338% and 92.3635% and 94.524% and 91.4798%
- Percent weight from day 0, individual animals (SARS-CoV-2 [15]; 150 mg/kg, Day 5): 90.4884% and 88.2446% and 89.2356% and 90.9014% and 88.0419%
- group average % of starting weight (SARS-CoV-2 [15]; 500 mg/kg PO BID): 97%
- Percent weight from day 0, individual animals (SARS-CoV-2 [15]; 500 mg/kg, Day 1): 100.542% and 100.174% and 100.172% and 100.97% and 95.4962%
- Percent weight from day 0, individual animals (SARS-CoV-2 [15]; 500 mg/kg, Day 2): 100.619% and 100.174% and 98.4483% and 98.806% and 95.246%
- Percent weight from day 0, individual animals (SARS-CoV-2 [15]; 500 mg/kg, Day 3): 101.161% and 99.7394% and 97.8448% and 97.1642% and 96.9975%
- Percent weight from day 0, individual animals (SARS-CoV-2 [15]; 500 mg/kg, Day 4): 100.774% and 99.5656% and 97.1552% and 94.5522% and 97.9983%
- Percent weight from day 0, individual animals (SARS-CoV-2 [15]; 500 mg/kg, Day 5): 100.31% and 99.7394% and 95.9483% and 95.597% and 98.0817%
- Emax (Calu-3 cells [16]; Calu-3, 48 h, read-out: Calu-3 cell count Sinf Average): 100%
- EC50 (Calu-3 cells [16]; Calu-3, read-out: Calu-3 cell count EC50 GeoMean, detail block): > 9.98 µM
- reduction in apical viral loads (SARS-CoV-2 [17]): > 1 log
- viral reduction (SARS-CoV-2 [18]; 50 mg/kg PO BID, compared to vehicle control): 99%
- live viral titers in the lungs (SARS-CoV-2 [18]; 50 mg/kg PO BID, day 5, group average): 4.5 × 10^3 PFU/lung
- SARS-CoV-2 viral load in lung by plaque quantification, individual animals (SARS-CoV-2 [18]; 50 mg/kg, day 5): 4.176 and 0 and 3.653 and 4.477
- live viral titers in the lungs (SARS-CoV-2 [18]; 150 mg/kg PO BID, day 5): undetectable
- SARS-CoV-2 viral load in lung by plaque quantification, individual animals (SARS-CoV-2 [18]; 150 mg/kg, day 5): 0
- live viral titers in the lungs (SARS-CoV-2 [18]; 500 mg/kg PO BID, day 5): undetectable
- SARS-CoV-2 viral load in lung by plaque quantification, individual animals (SARS-CoV-2 [18]; 500 mg/kg, day 5): 0
